Drawing on ChEMBL document CHEMBL2311471, “Synthesis of (E)-8-(3-chlorostyryl)caffeine analogues leading to 9-deazaxanthine derivatives as dual A(2A) antagonists/MAO-B inhibitors” (J Med Chem, 2013), this text covers IC50 and Ki for 44 molecules.

pIC50, pKi: −log10 of the molar value.

Assay [1] deals with T1, Amine oxidase [flavin-containing] B (Homo sapiens, UniProt P27338).
T1 sequence (P27338 whole entry): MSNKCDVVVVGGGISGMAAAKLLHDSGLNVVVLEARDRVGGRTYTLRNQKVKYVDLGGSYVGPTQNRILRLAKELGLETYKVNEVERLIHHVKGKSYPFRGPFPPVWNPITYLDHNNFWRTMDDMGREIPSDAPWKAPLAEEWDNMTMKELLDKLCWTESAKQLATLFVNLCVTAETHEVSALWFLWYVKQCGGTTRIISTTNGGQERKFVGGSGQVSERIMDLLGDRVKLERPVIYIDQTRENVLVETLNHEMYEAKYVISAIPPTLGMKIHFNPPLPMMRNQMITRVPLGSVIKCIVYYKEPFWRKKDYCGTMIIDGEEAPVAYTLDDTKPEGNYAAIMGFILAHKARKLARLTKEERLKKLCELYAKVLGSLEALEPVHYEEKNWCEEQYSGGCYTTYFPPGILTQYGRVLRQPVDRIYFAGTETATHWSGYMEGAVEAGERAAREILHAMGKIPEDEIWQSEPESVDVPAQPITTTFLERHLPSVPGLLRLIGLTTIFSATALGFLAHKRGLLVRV
In words: Inhibition of human MAOB after 1 hr by luminescence assay.

Assay [2] addresses Adenosine receptor A2a (Homo sapiens, UniProt P29274). In words: Displacement of [3H]ZM241385 from human adenosine A2A receptor expressed in HEK293 cells after 1 hr by microbeta scintillation counting analysis. The assay is classed as cell-based.
The target of assay [3] is T2, Amine oxidase [flavin-containing] A (Homo sapiens, UniProt P21397).
T2 sequence (P21397 whole entry): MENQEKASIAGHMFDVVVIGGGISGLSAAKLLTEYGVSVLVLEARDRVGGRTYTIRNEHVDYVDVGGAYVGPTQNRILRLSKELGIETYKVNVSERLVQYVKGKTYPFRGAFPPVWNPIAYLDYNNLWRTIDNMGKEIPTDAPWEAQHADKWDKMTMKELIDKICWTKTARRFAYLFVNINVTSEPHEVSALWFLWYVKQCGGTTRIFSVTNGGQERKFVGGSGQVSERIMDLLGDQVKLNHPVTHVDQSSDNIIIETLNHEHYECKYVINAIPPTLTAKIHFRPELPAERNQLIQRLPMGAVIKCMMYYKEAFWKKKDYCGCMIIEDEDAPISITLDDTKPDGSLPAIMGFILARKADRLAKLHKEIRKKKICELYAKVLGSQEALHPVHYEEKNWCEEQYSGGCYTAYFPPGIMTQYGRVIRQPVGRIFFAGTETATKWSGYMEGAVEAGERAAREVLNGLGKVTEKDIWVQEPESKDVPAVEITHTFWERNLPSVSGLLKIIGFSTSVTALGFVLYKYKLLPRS
In words: Inhibition of human MAOA after 1 hr by luminescence assay.

Sequence of Adenosine receptor A2a (P29274 whole entry): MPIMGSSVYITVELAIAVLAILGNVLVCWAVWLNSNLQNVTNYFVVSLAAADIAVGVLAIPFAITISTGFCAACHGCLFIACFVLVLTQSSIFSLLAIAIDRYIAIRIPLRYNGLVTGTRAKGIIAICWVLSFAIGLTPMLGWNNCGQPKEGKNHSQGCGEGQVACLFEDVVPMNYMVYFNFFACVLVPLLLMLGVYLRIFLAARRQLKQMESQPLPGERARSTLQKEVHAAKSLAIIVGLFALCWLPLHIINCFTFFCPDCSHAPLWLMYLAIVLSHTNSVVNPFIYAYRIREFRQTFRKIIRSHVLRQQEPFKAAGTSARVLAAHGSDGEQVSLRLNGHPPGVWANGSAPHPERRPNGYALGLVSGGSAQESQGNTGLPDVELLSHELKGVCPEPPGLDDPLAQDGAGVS

Take `Cn1c(=O)c2c(cc(/C=C/c3cccc(O)c3)n2C)n(C)c1=O`: the pIC50 in assay [1] is under 6.00. The pKi in assay [2] is under 6.00.
`CCn1c(=O)c2c(cc(C#Cc3ccc(Cl)cc3)n2C)n(CC)c1=O` had a pIC50 in assay [1] of under 6.00. In assay [2], the negative-log Ki (pKi) was under 5.00.
As to `Cn1c(=O)c2c(cc(/C=C/c3ccc(Br)cc3)n2C)n(C)c1=O`, the pIC50 in assay [1] was 6.57; in assay [3] it was 5.79. In assay [2], this molecule had a pKi of under 5.00.
On to `Cn1ccc2nc(/C=C/c3ccccc3)n(C)c2c1=O`, for which the pIC50 in assay [1] was under 5.00. The pKi in assay [2] was under 5.00.
With `Cn1c(=O)c2c(cc(/C=C/c3ccc(S(C)(=O)=O)cc3)n2C)n(C)c1=O`, the pIC50 in assay [1] is under 6.00. This molecule also gave a negative-log Ki (pKi) in assay [2] of under 6.00.
In turn, `CCn1c(=O)c2c(nc(/C=C/c3ccc(OC)c(OC)c3)n2C)n(CC)c1=O` [ISTRADEFYLLINE] gave a negative-log IC50 (pIC50) in assay [1] of under 5.00.
The molecule `CN(C(=O)/C=C/c1ccccc1)c1cn(C)c(=O)n(C)c1=O` showed a pIC50 in assay [1] of under 5.00. In assay [2], this molecule had a pKi of under 6.00.
The corresponding values for `Cn1c(=O)c2c(cc(/C=C/c3cccc(N)n3)n2C)n(C)c1=O` are under 5.00 and 6.05.
The corresponding values for `Cn1c(/C=C/c2ccccc2)nc2c1ccc(=O)n2C` are under 5.00 and under 5.00.
The corresponding values for `Cn1c(=O)c2c(cc(Oc3cccc(-c4ccccc4)c3)n2C)n(C)c1=O` are under 5.00 and under 5.00.
As for `COc1ccc(/C=C/c2cc3c(c(=O)n(C)c(=O)n3C)n2C)cc1`, the pIC50 is 6.12 in assay [1] and under 6.00 in assay [3]. This molecule also gave a pKi in assay [2] of 6.61.
For the molecule `Cn1c(=O)c2c(cc(Oc3cccc(Cl)c3)n2C)n(C)c1=O`, in assay [1], the pIC50 is under 5.00. Moreover, in assay [2], the pKi is under 5.00.
For `Cn1c(=O)c2c(cc(NC(=O)c3ccc(Cl)cc3)n2C)n(C)c1=O`, in assay [1], the pIC50 was under 5.00. Further, the pKi in assay [2] was under 5.00.
As to `Cn1c(=O)c2c(c3ccc(-c4cccc(Cl)c4)cc3n2C)n(C)c1=O`, the results for the pIC50 in assay [1] and in assay [3] were 5.86 and 5.51, respectively. This molecule gave a pKi in assay [2] of under 6.00.
The matching figures for `Cn1c(=O)c2c(cc(/C=C/c3ccc(C#N)cc3)n2C)n(C)c1=O`: 6.26, under 5.00 and under 6.00.
Turning to `Cn1c(=O)c2c(cc(C#Cc3cccc(Cl)c3)n2C)n(C)c1=O`, the pIC50 in assay [1] is 6.76; in assay [3], under 5.00. The molecule further gave a negative logarithm of the Ki (pKi) in assay [2] of under 5.00.
Turning to `Cn1c(=O)c2c(cc(/C=C/c3cccc(C(F)(F)F)c3)n2C)n(C)c1=O`, the figures for the pIC50 in assay [1] and in assay [3] were 6.32 and 5.24, respectively. In addition, the pKi in assay [2] was under 5.00.
With `Cn1c(=O)c2c(c3cc(OCc4ccccc4)ccc3n2C)n(C)c1=O`, the figures for the negative-log IC50 (pIC50) in assay [1] and in assay [3] were 5.28 and under 5.00, respectively. This molecule also showed a pKi in assay [2] of under 6.00.
The molecule `CCn1c(=O)c2c(cc(OCc3ccc(Cl)cc3)n2C)n(CC)c1=O` showed a negative-log IC50 (pIC50) in assay [1] of under 6.00. The negative logarithm of the Ki (pKi) in assay [2] was under 5.00.
As to `Cn1c(=O)c2c(nc(/C=C/c3ccc(Cl)cc3)n2C)n(C)c1=O`, the negative logarithm of the IC50 (pIC50) in assay [1] was 6.37; in assay [3] it was under 5.00. The molecule also showed a negative-log Ki (pKi) in assay [2] of 6.85.
Consider `CCCOc1ccc(/C=C/c2cc3c(c(=O)n(C)c(=O)n3C)n2C)cc1`, for which the pIC50 in assay [1] is 5.86; in assay [3], 5.89. This molecule showed a pKi in assay [2] of 6.51.
Take `Cn1c(=O)c2c(cc(/C=C/c3ccccc3O)n2C)n(C)c1=O`: in assay [1], the negative-log IC50 (pIC50) was under 6.00. This molecule also gave a pKi in assay [2] of 5.94.
As to `Cn1c(=O)c2c(cc(/C=C/c3ccccc3)n2C)n(C)c1=O`, the pIC50 in assay [1] was 5.80. The pKi in assay [2] is 6.77.
With `Cn1c(=O)c2c(cc(OCc3ccc(Cl)cc3)n2C)n(C)c1=O`, the pIC50 in assay [1] was 7.32; in assay [3], 5.54. Besides, in assay [2], the negative logarithm of the Ki (pKi) is under 5.00.
For the molecule `Cn1c(=O)c2c(cc(C#Cc3ccc(Cl)cc3)n2C)n(C)c1=O`, the negative logarithm of the IC50 (pIC50) was 7.17 in assay [1] and 5.69 in assay [3]. Moreover, the pKi in assay [2] was under 5.00.
In assay [1], `Cn1c(=O)c2c(cc(/C=C/c3ccncc3)n2C)n(C)c1=O` showed a pIC50 of under 5.00. In addition, the pKi in assay [2] was under 5.00.
Consider `Cn1c(=O)c2c(cc(OCc3ccc(Cl)c(C(F)(F)F)c3)n2C)n(C)c1=O`, for which the pIC50 in assay [1] was 6.23; in assay [3], under 5.00. In assay [2], the negative-log Ki (pKi) was under 5.00.
As to `Cn1c(=O)c2c(cc(/C=C/c3ccc(F)cc3)n2C)n(C)c1=O`, the pIC50 in assay [1] was 6.76; in assay [3], 6.09. For the same molecule, in assay [2], the pKi was 6.37.
In turn, `Cn1c(=O)c2c(cc(-c3nc4ccc(Cl)cc4o3)n2C)n(C)c1=O` had a negative logarithm of the IC50 (pIC50) in assay [1] of under 6.00. Moreover, the pKi in assay [2] was under 6.00.
For the molecule `Cn1c(=O)c2c(cc(-n3cc(-c4ccc(Cl)cc4)nn3)n2C)n(C)c1=O`, the results for the negative-log IC50 (pIC50) in assay [1] and in assay [3] were 6.74 and 6.14, respectively. For the same molecule, the negative-log Ki (pKi) in assay [2] is under 5.00.
Take `Cn1c(=O)c2c(cc(/C=C/c3cccc(Cl)c3)n2C)n(C)c1=O`: the negative logarithm of the IC50 (pIC50) in assay [1] is 5.83. The molecule also showed a pKi in assay [2] of 6.37.
`Cn1c(=O)c2c(cc(/C=C/c3ccc(Cl)c(Cl)c3)n2C)n(C)c1=O` gave a pIC50 in assay [1] of 6.88. In addition, in assay [2], the pKi was under 5.00.
For the molecule `Cn1c(=O)c2c(cc(/C=C/c3ccc(C(F)(F)F)cc3)n2C)n(C)c1=O`, the pIC50 is 6.37 in assay [1] and under 5.00 in assay [3]. This molecule gave a pKi in assay [2] of 6.28.
Turning to `Cn1c(=O)c2c(cc(/C=C/c3ccc4c(c3)OCO4)n2C)n(C)c1=O`, in assay [1], the negative-log IC50 (pIC50) was under 6.00. Also, the negative logarithm of the Ki (pKi) in assay [2] is 6.33.
`Cn1c(=O)c2c(cc(OCc3ccc4ccccc4c3)n2C)n(C)c1=O`: the negative logarithm of the IC50 (pIC50) is under 6.00 in assay [1] and under 5.00 in assay [3]. In assay [2], this molecule gave a pKi of under 5.00.
For `CC(=O)c1cccc(/C=C/c2cc3c(c(=O)n(C)c(=O)n3C)n2C)c1`, the pIC50 in assay [1] was under 5.00. In assay [2], this molecule showed a pKi of under 5.00.
Take `CCn1c(/C=C/c2ccc(Cl)cc2)cc2c1c(=O)n(C)c(=O)n2C`: in assay [1], the pIC50 is under 6.00. The same molecule had a pKi in assay [2] of under 5.00.
`Cn1c(=O)c2c(cc(/C=C/c3cccc(C#N)c3)n2C)n(C)c1=O` had a negative logarithm of the IC50 (pIC50) in assay [1] of under 5.00. The molecule further had a negative-log Ki (pKi) in assay [2] of under 5.00.
On to `Cn1c(=O)c2c(cc(C#CCc3ccccc3)n2C)n(C)c1=O`, for which the pIC50 in assay [1] is under 6.00. In assay [2], this molecule had a negative logarithm of the Ki (pKi) of under 5.00.
`Cn1c(=O)c2c(c3ccc(-c4ccccc4)cc3n2C)n(C)c1=O`: in assay [1], the pIC50 is 5.12. The molecule further had a negative logarithm of the Ki (pKi) in assay [2] of under 5.00.
The matching figures for `CCn1c(=O)c2c(cc(/C=C/c3ccc(Cl)cc3)n2C)n(CC)c1=O`: under 6.00 and under 5.00.
The matching figures for `Cn1c(=O)c2c(cc(/C=C/c3ccc(O)cc3)n2C)n(C)c1=O`: under 5.00 and under 5.00.
Consider `COc1cccc(/C=C/c2cc3c(c(=O)n(C)c(=O)n3C)n2C)c1`, for which the results for the negative-log IC50 (pIC50) in assay [1] and in assay [3] were 6.43 and 5.91, respectively. The negative-log Ki (pKi) in assay [2] is 6.41.
For the molecule `CC(=O)c1ccc(/C=C/c2cc3c(c(=O)n(C)c(=O)n3C)n2C)cc1`, the pIC50 in assay [1] was 6.23; in assay [3], under 5.00. In addition, the negative logarithm of the Ki (pKi) in assay [2] was 7.03.
